Measurements reported in patent publication US20150344843A1, “DETERGENT TREATED BIOLOGICAL TISSUE WITH LOW RESIDUAL DETERGENT AND METHOD OF PRODUCING THE SAME” (Bacterin International, Inc., priority 2014, published 2015).

Test system: L-929 mouse fibroblast cells
Experiment: MEM endpoint dilution assay for liquids (cytotoxic threshold of SDS)
Assay type: cell-based
Set-up: key to Cytotoxicity Score: 0: Discrete intracytoplasmic granules, no cell lysis, no reduction of cell growth; 1: Not more than 20% of the cells are round, loosely attached, and without intracytoplasmic granules, or show changes in morphology; occasional lysed cells are present; only slight growth inhibition observable; 2: Not more than 50% of the cells are round, devoid of intracytoplasmic granules, no extensive cell lysis; not more than 50% growth inhibition observable; 3: Not more than 70% of the cell layers contain rounded cells or are lysed; cell layers not completely destroyed, but more than 50% growth inhibition observable; 4: Nearly complete or complete destruction of the cell layers
Details: for Cytotoxicity Score: about 24 hours; for Pass/Fail: scores 0-2 Pass, 3-4 Fail per Table 1
Description: To determine the cytotoxic threshold of SDS, an MEM endpoint dilution assay for liquids using L-929 mouse fibroblast cells was performed. Briefly, solutions of Eagle's minimum essential medium with about 5% fetal bovine serum were created with various concentrations of SDS. One mL of the SDS containing medium was placed in a disposable tissue culture labware and a monoloyer of L-929 mouse fibroblasts was placed on top of the media. The cells were incubated for about 24 hours at about 37° C. in a humidified atmosphere of about 5% CO2 in air. The mouse fibroblasts were then […] examined using the semi-quantitative scale defined in Table 1.
Appropriate positive and negative controls were assessed to ensure the validity of the assay.

[1] = SDS concentration 4 μg/mL (approximate)
[2] = SDS concentration 8 μg/mL (approximate)
[3] = SDS concentration 16 μg/mL (approximate)
[4] = SDS concentration 17 μg/mL (approximate)
[5] = SDS concentration 20 μg/mL (approximate)
[6] = SDS concentration 23 μg/mL (approximate)
[7] = SDS concentration 26 μg/mL (approximate)
[8] = SDS concentration 29 μg/mL (approximate)
[9] = SDS concentration 32 μg/mL (approximate)

In the case of `CCCCCCCCCCCCOS(=O)(=O)[O-].[Na+]` [SDS, sodium dodecyl sulfate], the “Cytotoxicity Score” value [1] is reported as 0, the Pass/Fail [1] is reported as “Pass” and the “Cytotoxicity Score” value [2] is reported as 0. For the same molecule, the Pass/Fail [2] was “Pass”, the “Cytotoxicity Score” value [3] was 0 and the Pass/Fail [3] was “Pass”. The “Cytotoxicity Score” value [4] was 0, the Pass/Fail [4] was “Pass” and the “Cytotoxicity Score” value [5] was 0. The Pass/Fail [5] was “Pass”, the “Cytotoxicity Score” value [6] was 1 and the Pass/Fail [6] was “Pass”. For the same molecule, the “Cytotoxicity Score” value [7] was 4, the Pass/Fail [7] was “Fail” and the “Cytotoxicity Score” value [8] was 4. The Pass/Fail [8] was “Fail”, the “Cytotoxicity Score” value [9] was 4 and the Pass/Fail [9] was “Fail”. The “limit of toxicity for SDS, corresponding tissue content” value (converted from μg/mL limit) was 86-98 ng of SDS/mg of tissue and the “SDS content for tissue to be non-cytotoxic” value (threshold from in vitro limit) was “less than 86 ng of SDS/mg of tissue”.
